Data reported in PubChem BioAssay AID248 (DTP/NCI, 2004).
Several values for one entry are separate records, joined by “and”; a condition that tells them apart may be missing. Equal entries are not always repeated. Toxic doses and inconclusive results are not listed. No stated cut-off is given here; in the data, active means T/C of 150% or more; inactive means T/C below 125%.

Tested on: L1210 leukemia ip in BDF1 mice, survival T/C
Test: NCI In Vivo Anticancer Drug Screen. Data for tumor model L1210 Leukemia (intraperitoneal) in B6D2F1 (BDF1) mice
Conditions: endpoint: mean survival time, higher = longer survival
Procedure, shortened: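 Mice bearing the transplanted tumor received compound or vehicle. Survival of the treated group was divided by that of the vehicle-treated control group to give the ratio.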

[1] = dose: 100.0 mg/kg/injection, schedule: Q01DX009 (ip), vehicle: saline
[2] = dose: 100.0 mg/kg/injection, schedule: Q01DX009 (ip), vehicle: Klucel (hydroxypropylcellulose) (HPC)
[3] = dose: 200.0 mg/kg/injection, schedule: Q01DX009 (ip), vehicle: Klucel (hydroxypropylcellulose) (HPC)
[4] = dose: 400.0 mg/kg/injection, schedule: Q01DX009 (ip), vehicle: Klucel (hydroxypropylcellulose) (HPC)
[5] = dose: 100.0 mg/kg/injection, schedule: Q01DX001 (ip), vehicle: carboxymethylcellulose (CMC)
[6] = dose: 200.0 mg/kg/injection, schedule: Q01DX001 (ip), vehicle: carboxymethylcellulose (CMC)
[7] = dose: 400.0 mg/kg/injection, schedule: Q01DX001 (ip), vehicle: carboxymethylcellulose (CMC)
[8] = dose: 100.0 mg/kg/injection, schedule: Q04DX003 (ip), vehicle: saline with Tween-80
[9] = dose: 200.0 mg/kg/injection, schedule: Q04DX003 (ip), vehicle: saline with Tween-80
[10] = dose: 400.0 mg/kg/injection, schedule: Q04DX003 (ip), vehicle: saline with Tween-80
[11] = dose: 100.0 mg/kg/injection, schedule: Q04DX002 (ip), vehicle: saline with Tween-80
[12] = dose: 100.0 mg/kg/injection, schedule: Q01DX009 (ip), vehicle: acetone
[13] = dose: 200.0 mg/kg/injection, schedule: Q01DX009 (ip), vehicle: acetone
[14] = dose: 400.0 mg/kg/injection, schedule: Q01DX009 (ip), vehicle: acetone
[15] = dose: 100.0 mg/kg/injection, schedule: Q04DX003 (ip), vehicle: saline
[16] = dose: 50.0 mg/kg/injection, schedule: Q01DX009 (ip), vehicle: saline
[17] = dose: 200.0 mg/kg/injection, schedule: Q01DX009 (ip), vehicle: saline
[18] = dose: 400.0 mg/kg/injection, schedule: Q01DX009 (ip), vehicle: saline
[19] = dose: 100.0 mg/kg/injection, schedule: Q04DX003 (ip), vehicle: Klucel (hydroxypropylcellulose) (HPC)
[20] = dose: 200.0 mg/kg/injection, schedule: Q04DX003 (ip), vehicle: Klucel (hydroxypropylcellulose) (HPC)
[21] = dose: 400.0 mg/kg/injection, schedule: Q04DX003 (ip), vehicle: Klucel (hydroxypropylcellulose) (HPC)

Measured: T/C

COC(=O)C1C=C2c3cccc4[nH]cc(c34)CC2N(C)C1 (configuration not stated)
inactive: [1] 105 % of control

CN(Cc1ccccc1)C(=O)Nc1ccc(Cl)c(Cl)c1
inactive: [2] 97 % of control | [3] 110 % of control | [4] 101 % of control

Cc1ccc(C)c(NC(=O)Nc2ccccc2Cl)c1
inactive: dose: 100.0 mg/kg/injection, schedule: Q01DX009 (ip), vehicle: gum acacia 90 % of control | dose: 100.0 mg/kg/injection, schedule: Q04DX003 (ip), vehicle: gum acacia 93 % of control | dose: 200.0 mg/kg/injection, schedule: Q01DX009 (ip), vehicle: gum acacia 90 % of control | dose: 200.0 mg/kg/injection, schedule: Q04DX003 (ip), vehicle: gum acacia 91 % of control | dose: 400.0 mg/kg/injection, schedule: Q01DX009 (ip), vehicle: gum acacia 90 % of control | dose: 400.0 mg/kg/injection, schedule: Q04DX003 (ip), vehicle: gum acacia 94 % of control

CC(=O)CC(=O)Nc1cccnc1
inactive: [5] 100 % of control | [6] 96 % of control | [7] 100 % of control

N#Cc1nc(-c2ccccc2)c(-c2ccccc2)nc1C#N
inactive: [2] 97 % of control | [3] 98 % of control | [4] 96 % of control

CCCCNC(=O)n1ncc2cc([N+](=O)[O-])c([N+](=O)[O-])cc21
inactive: dose: 100.0 mg/kg/injection, schedule: Q01DX001 (ip), vehicle: saline 103 % of control | dose: 200.0 mg/kg/injection, schedule: Q01DX001 (ip), vehicle: saline 97 % of control | dose: 400.0 mg/kg/injection, schedule: Q01DX001 (ip), vehicle: saline 101 % of control

O=C1N/C(=N/OCc2ccc([N+](=O)[O-])cc2)CC(NOCc2ccc([N+](=O)[O-])cc2)N1 (configuration not stated)
inactive: [8] 91 % of control | [9] 101 % of control | [10] 89 % of control

CCOP(=O)(OCC)C1=C(CC)CC1
inactive: dose: 9.5 mg/kg/injection, schedule: Q01DX001 (ip), vehicle: other 109 % of control | dose: 19.0 mg/kg/injection, schedule: Q01DX001 (ip), vehicle: other 111 % of control | dose: 38.0 mg/kg/injection, schedule: Q01DX001 (ip), vehicle: other 106 % of control

CC(C)C(C=O)(CCN1CCCCC1)c1cccc2ccccc12 (configuration not stated)
inactive: dose: 25.0 mg/kg/injection, schedule: Q04DX002 (ip), vehicle: saline with Tween-80 98 % of control | dose: 50.0 mg/kg/injection, schedule: Q04DX002 (ip), vehicle: saline with Tween-80 98 % of control | [11] 88 % of control

CC(CO)(NC(=O)OCc1ccccc1)C(=O)O (configuration not stated)
inactive: [12] 94 % of control | [13] 92 % of control | [14] 92 % of control

COC(=O)NC1CC(OC(=O)c2ccc(C)cc2)C(COC(=O)c2ccc(C)cc2)O1 (configuration not stated)
inactive: dose: 50.0 mg/kg/injection, schedule: Q04DX003 (ip), vehicle: saline with Tween-80 96 % of control | dose: 66.0 mg/kg/injection, schedule: Q04DX003 (ip), vehicle: saline 94 % of control | [8] 97 % of control | [15] 100 % of control | dose: 150.0 mg/kg/injection, schedule: Q04DX003 (ip), vehicle: saline 95 % of control | [9] 100 % of control | dose: 225.0 mg/kg/injection, schedule: Q04DX003 (ip), vehicle: saline 95 % of control | dose: 337.0 mg/kg/injection, schedule: Q04DX003 (ip), vehicle: saline 103 % of control | [10] 96 % of control

CC(C)NNC(=O)C(N)CO (configuration not stated)
inactive: dose: 25.0 mg/kg/injection, schedule: Q01DX009 (ip), vehicle: saline 91 % of control | [16] 97 % of control | [1] 105 % of control | [17] 97 % of control | [18] 107 % of control

CC(C)(Cc1c[nH]c2ccccc12)NC(=O)c1ccccc1
inactive: [2] 90 % of control | [19] 100 % of control | [20] 98 % of control | [4] 92 % of control | [21] 98 % of control

CCCCCOc1cc([N+](=O)[O-])c(OCCCCC)cc1N1CCN(C(C)=O)CC1
inactive: dose: 100.0 mg/kg/injection, schedule: Q04DX003 (sc), vehicle: olive oil, sesame oil, peanut oil 100 % of control | dose: 200.0 mg/kg/injection, schedule: Q04DX003 (sc), vehicle: olive oil, sesame oil, peanut oil 96 % of control | dose: 400.0 mg/kg/injection, schedule: Q04DX003 (sc), vehicle: olive oil, sesame oil, peanut oil 105 % of control

C=CCCC1(CC=C)C(=O)NC(=O)NC1=O
inactive: dose: 75.0 mg/kg/injection, schedule: Q01DX001 (ip), vehicle: saline 100 % of control | dose: 150.0 mg/kg/injection, schedule: Q01DX001 (ip), vehicle: saline 104 % of control

CN(C)CCCNc1ccc(O)c2c1C(=O)c1ccccc1C2=O
inactive: [16] 100 % of control | [1] 95 % of control | [17] 106 % of control | [18] 105 % of control

Br/C=C/C1CCCCC1
inactive: [12] 104 % of control | [15] 105 % of control | [13] 123 % of control | dose: 200.0 mg/kg/injection, schedule: Q04DX003 (ip), vehicle: saline 92 % of control | [14] 107 % of control | dose: 400.0 mg/kg/injection, schedule: Q04DX003 (ip), vehicle: saline 92 % of control

Clc1ccc2c(c1)Nc1ccccc1S2
inactive: [2] 88 % of control | [19] 94 % of control | [3] 95 % of control | [20] 98 % of control | [4] 96 % of control | [21] 100 % of control

O=C1CC(Cc2n[nH]c3c2CCCC3)CC(=O)N1
inactive: [5] 100 % of control | [6] 95 % of control | [7] 95 % of control

CCCN(C(=O)c1cccc([N+](=O)[O-])c1)C(c1ccco1)P(=O)(c1ccccc1)c1ccccc1 (configuration not stated)
inactive: dose: 50.0 mg/kg/injection, schedule: Q01DX001 (ip), vehicle: saline with Tween-80 101 % of control | dose: 100.0 mg/kg/injection, schedule: Q01DX001 (ip), vehicle: saline with Tween-80 101 % of control | dose: 100.0 mg/kg/injection, schedule: Q01DX009 (ip), vehicle: saline with Tween-80 100 % of control and 90 % of control | [11] 98 % of control | dose: 200.0 mg/kg/injection, schedule: Q01DX001 (ip), vehicle: saline with Tween-80 106 % of control | dose: 200.0 mg/kg/injection, schedule: Q01DX009 (ip), vehicle: saline with Tween-80 87 % of control | dose: 200.0 mg/kg/injection, schedule: Q04DX002 (ip), vehicle: saline with Tween-80 102 % of control | dose: 400.0 mg/kg/injection, schedule: Q04DX002 (ip), vehicle: saline with Tween-80 93 % of control and 88 % of control
